This test deals with PBMC from 30 HC individuals. Kind of test: ex vivo IFNγ ELISPOT with NTM-specific peptides. The format is cell-based, human.
The mark [1] stands for this setting: response frequency among HC donors, NTM-specific peptides (Table 2).
The mark [2] stands for this setting: total spot forming cells, IFNγ ELISPOT, NTM-specific peptides (Table 2).

Where two headings read alike, the source gives them in different places.

YNVVIYPVTTLRLAM [Peptide 1556]: the Resp Freq worked out at 3% and the “Total SFC” value was determined as 122 SFC. In addition, the “Resp Freq” value under setting [1] is 3%. Besides, under setting [2], the “Total SFC” value stood at 122 SFC.
As to 281 (IVAHYILQYATEELR) [Peptide 281], the “Resp Freq” value under setting [1] worked out at 3%. The “Total SFC” value under setting [2] was determined as 25 SFC.
As to 175 (LDYFLNLMLRAPFRL) [Peptide 175], the “Resp Freq” value under setting [1] is given as 3%. For the same substance, the “Total SFC” value under setting [2] worked out at 32 SFC.
In the case of 691 (LANPGIVSIPLAFIL) [Peptide 691], under setting [1], the “Resp Freq” value is given as 3%. The “Total SFC” value under setting [2] turned out to be 23 SFC.
Take 898 (GQRVITLLASANRDE) [Peptide 898]: the “Resp Freq” value under setting [1] came to 3%. Under setting [2], the “Total SFC” value was 23 SFC.
For the substance 804 (NSSIVLISLPAIFRG) [Peptide 804], the “Resp Freq” value under setting [1] came to 3%. Also, under setting [2], the “Total SFC” value is reported as 57 SFC.
For 646 (ADAVNFGVAPAFIVY) [Peptide 646], in that order: 3% and 37 SFC.
Regarding 841 (PQFLIMPKLIPALIA) [Peptide 841], the “Resp Freq” value under setting [1] amounted to 3%. The “Total SFC” value under setting [2] is on record as 48 SFC.
For 629 (VQFMPLVIAPQLLLC) [Peptide 629], the “Resp Freq” value under setting [1] was 3%. Also, under setting [2], the “Total SFC” value is 37 SFC.
Turning to 424 (AVPNFALTPLLIIWM) [Peptide 424], under setting [1], the “Resp Freq” value is 3%. Moreover, the “Total SFC” value under setting [2] is listed as 55 SFC.
As for 1525 (FFHRGLMLMSFDEHL) [Peptide 1525], the “Resp Freq” value under setting [1] is recorded as 3%. In addition, the “Total SFC” value under setting [2] is reported as 25 SFC.
For 1334 (FFDAGLVVFLPIIMT) [Peptide 1334], in that order: 3% and 47 SFC.
Take 745 (VFALMGLRQLYFLLG) [Peptide 745]: the “Resp Freq” value under setting [1] was 3%. The “Total SFC” value under setting [2] was 35 SFC.
As for 78 (IVGAALFLASDASSF) [Peptide 78], the “Resp Freq” value under setting [1] is 3%. Moreover, the “Total SFC” value under setting [2] amounted to 32 SFC.
For 945 (ALIHVLWINAGLSCD) [Peptide 945], in that order: 3% and 23 SFC.
Turning to RLFPVIRRYALAYHV [Peptide 582], the Resp Freq was determined as 10% and the “Total SFC” value is recorded as 158 SFC. Further, the “Resp Freq” value under setting [1] is 10%. Moreover, the “Total SFC” value under setting [2] was 158 SFC.
438 (GSVLLVQALLVTSLL) [Peptide 438]: the “Resp Freq” value under setting [1] came to 3%. In addition, the “Total SFC” value under setting [2] turned out to be 25 SFC.
Turning to 963 (VLVVFLLPALRDGAP) [Peptide 963], under setting [1], the “Resp Freq” value stood at 3%. For the same substance, the “Total SFC” value under setting [2] is recorded as 25 SFC.
For the substance RFTLLRPLLFTIAYE [Peptide 311], the Resp Freq stood at 3% and the “Total SFC” value was 477 SFC. The “Resp Freq” value under setting [1] was 3%. Moreover, the “Total SFC” value under setting [2] stood at 477 SFC.
As to 439 (GMVFQSFNLFAHKTI) [Peptide 439], the “Resp Freq” value under setting [1] turned out to be 3%. Also, under setting [2], the “Total SFC” value is 28 SFC.
In the case of 713 (EGELHLFTPEVVFLL) [Peptide 713], under setting [1], the “Resp Freq” value is 3%. Further, the “Total SFC” value under setting [2] was found to be 30 SFC.
Take 1571 (ADGLVLFNRFLQPDI) [Peptide 1571]: the “Resp Freq” value under setting [1] is reported as 3%. Under setting [2], the “Total SFC” value is 48 SFC.
Turning to SLHMFFHRLGPVLAR [Peptide 329], the Resp Freq came out at 7% and the “Total SFC” value is reported as 167 SFC. The “Resp Freq” value under setting [1] turned out to be 7%. Also, the “Total SFC” value under setting [2] turned out to be 167 SFC.
Take PKLKQFMSDVVWIEH [Peptide 775]: the Resp Freq came to 7% and the “Total SFC” value turned out to be 70 SFC. Moreover, under setting [1], the “Resp Freq” value was 7%. Further, the “Total SFC” value under setting [2] came to 70 SFC.
As for 659 (GLLYVPQLATISATF) [Peptide 659], under setting [1], the “Resp Freq” value was 3%. Moreover, the “Total SFC” value under setting [2] was determined as 38 SFC.
As to 626 (ARAGFAASGVLHLLV) [Peptide 626], the “Resp Freq” value under setting [1] turned out to be 3%. Besides, the “Total SFC” value under setting [2] was found to be 48 SFC.
On to 697 (RSLMFPTLASLIEER) [Peptide 697], for which the “Resp Freq” value under setting [1] was 3%. Moreover, the “Total SFC” value under setting [2] was found to be 25 SFC.
On to 205 (TTSLAFLVAFRPGLV) [Peptide 205], for which the “Resp Freq” value under setting [1] was determined as 3%. Under setting [2], the “Total SFC” value was found to be 45 SFC.
On the same counts, the results for 543 (VIMPWMIFYQQGAVV) [Peptide 543] are 3% and 43 SFC.
As for 1132 (FLFTMLQKTLKGNIF) [Peptide 1132], the “Resp Freq” value under setting [1] came out at 3%. The “Total SFC” value under setting [2] is given as 35 SFC.
Turning to 106 (GLSSAWLSLIFAEMI) [Peptide 106], under setting [1], the “Resp Freq” value worked out at 3%. For the same substance, the “Total SFC” value under setting [2] came to 55 SFC.
For 658 (VRRVLPALMNQFISL) [Peptide 658], the “Resp Freq” value under setting [1] stood at 3%. Besides, the “Total SFC” value under setting [2] worked out at 32 SFC.
On the same counts, the results for 937 (HLMQSVVMVSFPVEV) [Peptide 937] are 3% and 22 SFC.

The values are drawn from US10406218B2 (priority 2014, dated 2019).
